Measured values published in a melting point compilation (Tetko et al.; mined from patent text by program, amines drawn as free bases though some values may be those of a salt).

SMILES | melting point [°C]
CC(=O)N1Cc2cccc3[nH]cc(c23)C1 | 205 to 206
COC(=O)C(C)(Cc1ccc(Cl)nc1)C(=O)OC | 80 to 81
Cc1c(O)cnn(C(C)(C)C)c1=O | 236 to 239
O=[N+]([O-])c1cccc(-c2cc3c(Cl)ncnc3o2)c1 | 196 to 205
COC(=O)c1cc(SC)cnc1C1=NC(C)(C(C)C)C(=O)N1 (stereo unspecified) | 107 to 108
Cc1cc(Cl)ccc1N1CCC(=O)N(C)C1=O | 120 to 127
C=CCOc1ccc(OC)cc1C(=O)c1oc2ccc(Cl)cc2c1N | 115 to 116
C#CCOC(=O)c1ncn2c1CN(C)C(=O)c1c(Cl)cccc1-2 | 198 to 200
CC1(c2ccc3c(c2)C(c2ccccc2)=NCC(=C[N+](=O)[O-])N3)OCCO1 | 158 to 161
COc1cc(OC(C)C)ccc1/C=C/c1cc(/C=C/c2ccc3cc[nH]c3c2)n[nH]1 | 107 to 113
CC(C)(C)c1cc(OCc2ccccc2C#N)cc(C(C)(C)C)c1O | 117 to 119
CCN(CC)C(=O)Nc1ccc(S(=O)(=O)N2C(=O)C(NCCOCCO)(c3ccccc3Cl)c3cc(Cl)ccc32)cc1 (stereo unspecified) | 114 to 118
O=C(N(CCCc1ccncc1)Cc1ccccc1)N(CCCc1ccccc1)C1CCCCC1 | 107 to 112
Cc1nccn1-c1nc(Cl)c(-c2ccccc2)c2ccccc12 | 167 to 168
CN1c2ccc(C(C)(C)C)cc2[C@H]2Cc3ccccc3[C@H]21 (relative stereo) | 74
O=C(Nc1ccc(NCc2ccccc2)cc1)C(=O)N1CCC(Cc2ccccc2)CC1 | 126 to 128
COC(=O)CCOc1ccc(C=O)cc1 | 48 to 50
N#Cc1cc(Cn2cncn2)ccc1-c1ccc(OS(N)(=O)=O)cc1 | 157 to 160
COc1ccc(N2CC(CSCCCSc3ccnc(CNc4nc(C)nc(C)c4Cl)c3C)OC2=O)cc1 (stereo unspecified) | 161 to 164
CCOC(=O)C(C)(C)Sc1ccc(NCCn2c(C)nc3ccccc3c2=O)cc1 | 226 to 228
COc1cc(-n2c(C#N)c3n(c2=O)CCCCC3)c(F)cc1Cl | 144 to 146
CCOC(=O)c1ncc2[nH]c3ccc(C#N)cc3c2c1COC | 252 to 255
CN1CCN(c2cccc3c2C[C@H](NC(=O)c2ccc(-n4cccc4)cc2)CC3)CC1 | 245 to 247
NC(=O)c1cccc2c1c1c(OCC(=O)O)ccc(Cl)c1n2Cc1ccccc1 | 240 to 242
CN(Cc1ccc(COc2cccc3c2CN(C2CCC(=O)NC2=O)C3=O)cc1)c1ccccc1 (stereo unspecified) | 201 to 203
O=C=Nc1ccc(-c2n[nH]c3c2Cc2ccccc2-3)cc1 | 338 to 339

SMILES | melting point [°C]
CCN(CC)c1cc2cnnn2c(C)n1 | 57 to 58
CN1C(=O)N(CC(COc2ccc(-c3ccc(Cl)cc3)cc2)N(O)C=O)C(=O)C1(C)C (stereo unspecified) | 124 to 125
COc1cc(C(C)=NN)ccc1OCCCN1CCC(c2noc3cc(F)ccc23)CC1 | 106 to 108
CCCCCn1ncc2c(N)c3c(nc21)CN(Cc1cccc(C(F)(F)F)c1)C3=O | 146 to 148
COC(=O)c1cc(-c2ccccc2C)c(C(=O)OC)cc1I | 105 to 109
O=[N+]([O-])c1cn2c(n1)OC[C@@H](OCc1cnc(Cl)cn1)C2 | 181 to 183
Cc1cc(C)c(-n2nnc3c(-c4ccccc4C(F)(F)F)nc(C)nc32)c(C)c1 | 139
CNC(=O)/C(=N/OC)c1ccccc1COc1cccc(SC)n1 | 130 to 132
CCN(C(C)=O)c1cccc(C(=O)C=CN(C)C)c1 | 110 to 113
O=C(NCc1ccc2ccn(C3CCN(CCc4ccc(F)cc4)CC3)c2c1)C1CC1 | 116 to 117
CC(C)CC(NC(=O)C(C)CS)C(=O)O (stereo unspecified) | 66 to 71
CC(C)(C)c1cc(CCN=C(O)c2cc(C(O)=NCCc3cc(C(C)(C)C)c(O)c(C(C)(C)C)c3)c(C(=O)O)cc2C(=O)O)cc(C(C)(C)C)c1O | 231 to 233
CCOC(=O)c1ccc(-c2ccc(-c3ccccc3O)c(-c3ccc4c(c3)C(C)(C)CCC4(C)C)c2)cc1 | 161 to 163
COc1ccc2ccc(-n3nc(OCCN4CCOCC4)cc3C)cc2c1 | 143 to 147
Fc1ccc(OC(=S)Nc2ccc(-c3ncn(-c4ccc(OC(F)(F)F)cc4)n3)cc2)cc1 | 164 to 169
CC1(C)C2CC1C(=O)CC2=O | 80 to 81
CCCCCCCS(=O)(=O)c1nn2c(=O)c(OC)cnc2s1 | 106 to 109
COc1cc(OC)c2c(=O)[nH]c(-c3cccc(N4CCN(C(C)CO)CC4)n3)nc2c1 (stereo unspecified) | 202 to 204
CCn1c(C(C)C)cc(-c2ccc(F)cc2)c1-c1ccccc1 | 110
COc1ccc(C2Cc3ccccc3C2=O)cc1 (stereo unspecified) | 83 to 85
Nc1ncnc2c1c(-c1ccc(Oc3ccccc3)cc1)nn2C1CCOCC1 | 187 to 188
COCCNc1cc(C)n(COC)c(=O)c1[N+](=O)[O-] | 172 to 173
Cn1cc(-c2cccc(F)c2)c(=O)c(-c2cccc(F)c2)c1 | 149 to 151
Cc1c(Cc2cc(Cl)cc(Cl)c2)c(C(=O)O)nn1CCO | 241 to 242
CCCc1c(C(=O)C(C)C)c2ccc(C(=O)O)cc2n1Cc1ccccc1OC | 190 to 191
CN1CCC(C(=O)Nc2ccc(CN(C)C3CCOCC3)cc2)=Cc2cc(-c3ccc(C(F)(F)F)cc3)ccc21 | 188

SMILES | melting point [°C]
O=S1(=O)N=CN(C2CCCC2)c2cc(Cl)c(Cl)cc21 | 189 to 191
CC1(C)CCOc2cc(C(=O)O)ccc21 | 173 to 174
CCOC(=O)c1c(C)[nH]c2ccc(OC[C@@H](O)CN)cc12 | 66 to 68
O=C1NC(=O)C(=Cc2ccc(N3CCC4(CC3)OCCO4)c(F)c2)S1 | 159 to 160
CS(=O)(=O)NC(=O)c1ccc(Cl)cc1NC(=O)c1cc(-c2ccc(Cl)cc2)oc1C(F)(F)F | 259 to 262
Cc1cc(-c2ccc(Cl)cc2)nnc1Cl | 230 to 233
OCc1cc2c3ccccc3n(Cc3ccccc3)c2cn1 | 120 to 122
CC(C)(C)OC(=O)CN1CCCNc2c1c(=O)c2=O | 167 to 168
CC(C)(CCCOc1ccc(CCC(=O)c2ccc(-c3ccc(C(F)(F)F)cc3)s2)c(Cl)c1Cl)C(=O)O | 167 to 169
CCOc1ccc2c(c1)c(I)c1n2CCC1 | 128 to 129
COc1cc2ccc(C(=O)CBr)cc2cc1OC | 120 to 122
CC(=O)NC(C(=O)O)c1ccc2occc2c1 (stereo unspecified) | 230 to 232
N#CC1CN1C(=O)NC(=O)CCl (stereo unspecified) | 152 to 155
CCCn1c(COC)nc2c(N)nc3ccc(OCC(=O)N4CCOCC4)cc3c21 | 201 to 204
CC(O)c1cc(NC(=O)OC(C)(C)C)ccc1NC(=O)OC(C)(C)C (stereo unspecified) | 189
CCOc1ccc2[nH]ccc2c1OCc1ccccc1 | 122 to 123
O=C(OC1CCCCC1)C(c1ccccc1)n1cnc2[nH]ncc2c1=O (stereo unspecified) | 176 to 180
CCOC(=O)/C(=N\OCC(=O)N(CC)CC)c1csc(N)n1 | 161
NCCCC(O)c1ccccc1 (stereo unspecified) | 94 to 96
Nc1nc(NC2CCC(CO)C2)c2ncn(C3C=CC(CO)C3)c2n1 (stereo unspecified) | 177 to 180
CC(=O)c1c(C)c(NC(=O)CC(C)(C)C)c(C)c2c1S(=O)(=O)CC2c1ccc(C(C)C)cc1 (stereo unspecified) | 184 to 186
O=[N+]([O-])c1ccc(Cn2ccnn2)cc1 | 112 to 113
CC(C)(C)c1cc(-c2cc(C(C)(C)C)cc(-n3nc4ccccc4n3)c2O)c(O)c(-n2nc3ccccc3n2)c1 | 234
O=C(NCCc1nc(-c2ccncn2)cc(=O)[nH]1)OCc1ccccc1 | 252 to 254
N=C(N)SCCc1ccc(Cl)c(Cl)c1 | 135 to 139
CC(=O)Oc1cc2c(c(OC(C)=O)c1)C1CCC3(C)C(O)CCC3C1CC2 (stereo unspecified) | 210 to 211

SMILES | melting point [°C]
O=C(O)c1cccc(-c2cccc(Oc3cccc(Cl)c3Cl)n2)c1 | 216 to 217
O=C(O)COc1cc(F)c(F)cc1C(=S)NCc1ccc(Br)cc1F | 206 to 209
Oc1cc(Br)cnc1F | 146
Clc1ccc2[nH]c3c(c2c1)CN(CCc1ccccn1)CC3 | 198 to 200
Cn1cc(-c2ccnnc2)ccc1=O | > 250
CCOC(=O)c1ncc2[nH]c3ccc(C(=O)N4CCCCC4)cc3c2c1C | 212 to 218
CC(C)(C)COc1c(-c2ccc(S(C)(=O)=O)cc2)cnn(CC(F)(F)F)c1=O | 145 to 146
NS(=O)(=O)c1c(-c2ccccc2)sc2ccccc12 | 185 to 186
O=C(NC(=O)c1ccc2ncccc2c1)NC1CCN(Cc2ccc3ccccc3c2)CC1 | 211 to 213
Cc1nc(N2CCN(Cc3ccc(F)cc3)C2=O)sc1C(=O)NCCN1CCCC1 | 183 to 184
Cc1cccc(C)c1Sc1cc(C(C)(C)C)cc(C(C)(C)C)c1O | 101 to 102
Cc1cc(C)cc(OCC(O)CCN2CCN(c3ccccc3)CC2)c1 (stereo unspecified) | 88 to 90
COc1cccc(-c2nn(Cc3ccccc3)c3ncnc(Cl)c23)c1 | 99 to 101
CCCOc1cccc(Oc2ccc3c(c2)C=C(C(=O)Nc2ccc(CN(C)C4CCOCC4)cc2)CCS3(=O)=O)c1 | 143 to 144
CCC1C(=O)N(CCCCN2CCN(c3ccccn3)CC2)c2cc(F)ccc21 (stereo unspecified) | 137 to 139
CSC(=C[N+](=O)[O-])NCCSCc1csc(NC(=N)N)n1 | 151 to 156
Cc1nnc(C(O)CCCCCCOc2ccccc2)o1 (stereo unspecified) | 50 to 52
COCCO[C@@H]1c2ccn3c(Cl)c(C)nc3c2N[C@H](c2ccccc2)[C@H]1O | 123 to 126
O=c1[nH]c2sc(Cl)c(Cl)c2[nH]c1=O | > 300
COC(=O)c1cscc1NC(=O)COc1ccc(-c2ccc(F)cc2)cc1 | 127 to 130
CCc1nc2c(cnn2CC)c(NC2CCOCC2)c1CNC(=O)c1cccc(C(=O)NCc2ccc(C)c(-c3cccc(C=O)c3)c2)c1 | 114 to 117
CCCCCC1(c2ccccc2)CC=CC(=O)O1 (stereo unspecified) | 123 to 124
NNC(=O)c1cc2c(Oc3ccc(Cl)cc3)cncc2s1 | 197 to 199
